Measurements reported in ChEMBL document CHEMBL5329192, “Synthesis, biological activities, and future perspectives of steroidal monocyclic pyridines” (RSC Med Chem, 2023).

How the values were obtained:
[1] = tested on: MCF7; assay: Antiproliferative activity against human MCF7 cells assessed as reduction in cell growth incubated for 48 hrs by MTT assay; type: functional, cell-based; conditions: MCF7, 48 h
[2] = tested on: SK-OV-3; assay: Antiproliferative activity against human SK-OV-3 cells assessed as reduction in cell growth incubated for 48 hrs by MTT assay; type: functional, cell-based; conditions: SK-OV-3, 48 h
[3] = tested on: HeLa; assay: Antiproliferative activity against human HeLa cells assessed as reduction in cell growth incubated for 48 hrs by MTT assay; type: functional, cell-based
[4] = tested on: HepG2; assay: Antiproliferative activity against human HepG2 cells assessed as reduction in cell growth incubated for 48 hrs by MTT assay; type: functional, cell-based; conditions: HepG2, 48 h
[5] = tested on: ECa-109 cell line; assay: Cytotoxicity against human Eca-109 cells assessed as reduction in cell viability incubated for 72 hrs by MTT assay; type: functional, cell-based; conditions: ECa-109, 72 h
[6] = tested on: MGC-803; assay: Cytotoxicity against human MGC-803 cells assessed as reduction in cell viability incubated for 72 hrs by MTT assay; type: functional, cell-based; conditions: MGC-803, 72 h
[7] = tested on: PC-3; assay: Cytotoxicity against human PC-3 cells assessed as reduction in cell viability incubated for 72 hrs by MTT assay; type: functional, cell-based; conditions: PC-3, 72 h
[8] = tested on: MCF7; assay: Cytotoxicity against human MCF7 cells assessed as reduction in cell viability incubated for 72 hrs by MTT assay; type: functional, cell-based; conditions: MCF7, 72 h
[9] = tested on: A549; assay: Cytotoxicity against human A549 cells assessed as reduction in cell viability incubated for 72 hrs by MTT assay; type: functional, cell-based; conditions: A549, 72 h
[10] = Acute toxicity in ip dosed albino rat administered twice daily for 14 days; type: organism-based; conditions: in vivo, time 14 day
[11] = tested on: Rattus norvegicus; assay: Anti-androgen activity against albino rat assessed as mass gain of prostate gland at 0.1 mg/kg, sc administered for 7 days; type: functional; conditions: time 7 day
[12] = species: Rattus norvegicus; assay: Ratio of anti-anabolic activity against albino rat assessed as reduction in mass of levator ani-muscle to anti-androgenic activity against albino rat assessed as mass gain of prostate gland; type: functional
[13] = Cytotoxicity against human RWPE-1 cells assessed as reduction in cell viability incubated for 48 hrs by SRB assay; type: toxicity, cell-based
[14] = tested on: PC-3; assay: Cytotoxicity against human PC-3 cells assessed as reduction in cell viability incubated for 48 hrs by SRB assay; type: toxicity, cell-based; conditions: PC-3, 48 h
[15] = tested on: HeLa; assay: Antiproliferative activity against human HeLa cells assessed as reduction in cell viability by MTT assay; type: functional, cell-based
[16] = Antiproliferative activity against human […] cells assessed as reduction in cell viability by MTT assay; type: functional, cell-based
[17] = tested on: Rattus norvegicus; assay: Anti-anabolic activity against albino rat assessed as mass gain of levator ani-muscle at 0.1 mg/kg, sc administered for 7 days; type: functional; conditions: time 7 day
[18] = tested on: ECa-109 cell line; assay: Antiproliferative activity against human EC109 cells assessed as reduction in cell proliferation incubated for 72 hrs by MTT assay; type: functional, cell-based; conditions: ECa-109, 72 h
[19] = tested on: EC9706; assay: Antiproliferative activity against human EC9706 assessed as reduction in cell proliferation incubated for 72 hrs by MTT assay; type: functional, cell-based; conditions: EC9706, 72 h
[20] = tested on: MGC-803; assay: Antiproliferative activity against human MGC-803 cells assessed as cell growth inhibition measured after 48 hrs by MTT assay; type: functional, cell-based; conditions: MGC-803, 48 h

Compound: C[C@]12CC[C@H]3[C@@H](CC=C4C[C@@H](O)CC[C@@]43C)[C@@H]1CC[C@@H]2c1cc(-c2ccccc2)c(C#N)c(N)n1
- IC50 [1]: 15.5 µM
- IC50 [2]: 13.1 µM
- IC50 [3]: 14.6 µM
- IC50 [4]: 23.8 µM
- IC50 [5]: > 64 µM
- IC50 [6]: 10.9 µM
- IC50 [7]: 3.2 µM
- IC50 [8]: 16 µM
- IC50 [9]: 43.2 µM

Compound: C[C@]12CC[C@H](O)C[C@@H]1CC[C@@H]1[C@@H]2CC[C@]2(C)c3c(c(-c4ccccc4)[nH]c(=O)c3C#N)C[C@@H]12
- LD50 at 336 h [10]: 4920 mg/kg
- Activity [11]: 0.234 g
- Ratio [12]: 11.3

Compound: CCOC(=O)c1cc2c(nc1C(=O)OCC)[C@@]1(C)CC[C@H]3[C@@H](CC=C4C[C@@H](O)CC[C@@]43C)[C@@H]1C2
- IC50 at 48 h [13]: 501 µM
- IC50 [14]: 95.4 µM

Compound: COc1ccc(-c2cc([C@H]3CC[C@H]4[C@@H]5CC=C6C[C@@H](O)CC[C@]6(C)[C@H]5CC[C@]34C)nc(N)c2C#N)cc1
- IC50 [1]: 101 µM
- IC50 [2]: 32.5 µM
- IC50 [3]: 40.3 µM
- IC50 [4]: 34.8 µM
- IC50 [5]: > 64 µM
- IC50 [6]: 57.8 µM
- IC50 [7]: 5.7 µM
- IC50 [8]: 51.1 µM
- IC50 [9]: > 64 µM

Compound: CCCc1cc2c(cn1)C[C@H]1[C@@H]3CC=C4C[C@@H](OC(C)=O)CC[C@]4(C)[C@H]3CC[C@]21C
- IC50 [15]: ≥ 100 µM
- IC50 [16]: ≥ 100 µM

Compound: CCOc1nc(-c2ccc(F)cc2)c2c(c1C#N)[C@@]1(C)CC[C@H]3[C@@H](CC[C@H]4C[C@@H](O)CC[C@@]43C)[C@@H]1C2
- LD50 at 336 h [10]: 4890 mg/kg
- Activity [11]: 0.123 g
- Activity [17]: 0.191 g
- Ratio [12]: 1.55

Compound: CCOC(=O)c1cc2c(nc1C)[C@@]1(C)CC[C@H]3[C@@H](CC=C4C[C@@H](OC(C)=O)CC[C@@]43C)[C@@H]1C2
- EC50 [18]: 16.1 µM
- IC50 [19]: 34.7 µM
- IC50 [20]: 12.2 µM

Compound: CCOc1nc(-c2ccccc2)c2c(c1C#N)[C@@]1(C)CC[C@H]3[C@@H](CC[C@H]4C[C@@H](O)CC[C@@]43C)[C@@H]1C2
- LD50 at 336 h [10]: 4890 mg/kg
- Activity [11]: 0.321 g
- Activity [17]: 0.494 g
- Ratio [12]: 1.54

Compound: C[C@]12CC[C@H](O)C[C@@H]1CC[C@@H]1[C@@H]2CC[C@]2(C)c3c(C#N)c(S)nc(-c4ccccc4)c3C[C@@H]12
- LD50 at 336 h [10]: 4910 mg/kg
- Activity [11]: 0.421 g
- Activity [17]: 0.577 g
- Ratio [12]: 1.37

Compound: CC(=O)O[C@H]1CC[C@@]2(C)C(=CC[C@@H]3[C@@H]2CC[C@]2(C)c4cc(-c5ccc(C)cc5)ncc4C[C@@H]32)C1
- IC50 [15]: ≥ 100 µM
- IC50 [16]: ≥ 100 µM

Compound: CC(=O)O[C@H]1CC[C@@]2(C)C(=CC[C@@H]3[C@@H]2CC[C@]2(C)c4cc(-c5ccc(F)cc5)ncc4C[C@@H]32)C1
- IC50 [15]: ≥ 100 µM
- IC50 [16]: ≥ 100 µM

Compound: CCOC(=O)c1cc2c(nc1CCl)[C@@]1(C)CC[C@H]3[C@@H](CC=C4C[C@@H](OC(C)=O)CC[C@@]43C)[C@@H]1C2
- EC50 [18]: 15.5 µM
- IC50 [19]: 37.6 µM
- IC50 [20]: 9.84 µM

Compound: CCOC(=O)c1cc2c(nc1-c1ccccc1)[C@@]1(C)CC[C@H]3[C@@H](CC=C4C[C@@H](OC(C)=O)CC[C@@]43C)[C@@H]1C2
- IC50 at 48 h [13]: 375 µM
- IC50 [14]: 437 µM

Compound: CCCCc1cc2c(cn1)C[C@H]1[C@@H]3CC=C4C[C@@H](OC(C)=O)CC[C@]4(C)[C@H]3CC[C@]21C
- IC50 [15]: ≥ 100 µM
- IC50 [16]: ≥ 100 µM

Compound: O=c1[nH]cc(F)c(=O)[nH]1 [FLUOROURACIL]
- EC50 [18]: 21.1 µM
- IC50 [19]: 2.45 µM
- IC50 [20]: 26.4 µM
- IC50 [1]: 25.4 µM
- IC50 [2]: 25 µM
- IC50 [3]: 18.8 µM
- IC50 [4]: 66.8 µM
- IC50 [6]: 15.7 µM
- IC50 [7]: 6.7 µM
- IC50 [8]: 10 µM
- IC50 [9]: 5.7 µM

Compound: CCOC1(OCC)NC(c2ccccc2)=C2C[C@H]3[C@@H]4CC[C@H]5C[C@@H](O)CC[C@]5(C)[C@H]4CC[C@]3(C)C2=C1C#N
- LD50 at 336 h [10]: 4900 mg/kg
- Activity [11]: 0.345 g
- Activity [17]: 0.486 g
- Ratio [12]: 1.41

Compound: CC(=O)O[C@H]1CC[C@@]2(C)C(=CC[C@@H]3[C@@H]2CC[C@]2(C)c4nc(C)c(C(C)=O)cc4C[C@@H]32)C1
- EC50 [18]: 14.3 µM
- IC50 [19]: 30.6 µM
- IC50 [20]: 10.3 µM

Compound: C[C@]12CC[C@H](O)C[C@@H]1CC[C@@H]1[C@@H]2CC[C@]2(C)c3c(C#N)c(S)nc(-c4ccc(Cl)cc4)c3C[C@@H]12
- LD50 at 336 h [10]: 4910 mg/kg
- Activity [11]: 0.345 g
- Activity [17]: 0.48 g
- Ratio [12]: 1.39

Compound: COc1cccc2c1C(=O)c1c(O)c3c(c(O)c1C2=O)C[C@@](O)(C(=O)CO)C[C@@H]3O[C@H]1C[C@H](N)[C@H](O)[C@H](C)O1 [DOXORUBICIN]
- IC50 [16]: 9 µM

Compound: CCOC(=O)c1cc2c(cn1)C[C@H]1[C@@H]3CC=C4C[C@@H](OC(C)=O)CC[C@]4(C)[C@H]3CC[C@]21C
- IC50 [15]: ≥ 100 µM
- IC50 [16]: ≥ 100 µM

Compound: COC(=O)c1cc2c(nc1C)[C@@]1(C)CC[C@H]3[C@@H](CC=C4C[C@@H](OC(C)=O)CC[C@@]43C)[C@@H]1C2
- EC50 [18]: 17.1 µM
- IC50 [19]: 26.5 µM
- IC50 [20]: 16.7 µM

Compound: C[C@]12CC[C@H](O)CC1=CC[C@@H]1[C@@H]2CC[C@]2(C)C(c3cccnc3)=CC[C@@H]12 [ABIRATERONE]
- IC50 at 48 h [13]: 645 µM
- IC50 [14]: 91 µM
- IC50 [7]: 17.2 µM

Compound: C[C@]12CCC(=O)C[C@@H]1CC[C@@H]1[C@@H]2CC[C@]2(C)[C@@H](O)CC[C@@H]12 [STANOLONE]
- LD50 at 336 h [10]: 3410 mg/kg
- Activity [11]: 0.2 g
- Activity [17]: 0.18 g

Compound: C[C@]12CC[C@H](O)C[C@@H]1CC[C@@H]1[C@@H]2CC[C@]2(C)c3c(c(-c4ccc(Cl)cc4)[nH]c(=O)c3C#N)C[C@@H]12
- LD50 at 336 h [10]: 4920 mg/kg
- Activity [11]: 0.234 g
- Activity [17]: 0.314 g
- Ratio [12]: 1.34

Compound: C[C@]12CC[C@H]3[C@@H](CCC4=CC(=O)CC[C@@]43C)[C@@H]1CC[C@@H]2O [TESTOSTERONE]
- LD50 at 336 h [10]: 2750 mg/kg
- Activity [11]: 0.76 g
- Activity [17]: 0.204 g
- Ratio [12]: 0.27

Compound: CCOC(=O)c1cc2c(nc1C(=O)OCC)[C@@]1(C)CC[C@H]3[C@@H](CC=C4C[C@@H](OC(C)=O)CC[C@@]43C)[C@@H]1C2
- IC50 at 48 h [13]: 218 µM
- IC50 [14]: 100 µM

Compound: CCOC(=O)c1cc2c(nc1-c1ccccc1)[C@@]1(C)CC[C@H]3[C@@H](CC=C4C[C@@H](O)CC[C@@]43C)[C@@H]1C2
- IC50 at 48 h [13]: 189 µM
- IC50 [14]: 197 µM

Compound: CC(=O)O[C@H]1CC[C@@]2(C)C(=CC[C@@H]3[C@@H]2CC[C@]2(C)c4cc(-c5ccccc5)ncc4C[C@@H]32)C1
- IC50 [15]: ≥ 100 µM
- IC50 [16]: ≥ 100 µM

Compound: CCOC1(OCC)NC(c2ccc(F)cc2)=C2C[C@H]3[C@@H]4CC[C@H]5C[C@@H](O)CC[C@]5(C)[C@H]4CC[C@]3(C)C2=C1C#N
- LD50 at 336 h [10]: 4900 mg/kg
- Activity [11]: 0.432 g
- Activity [17]: 0.622 g
- Ratio [12]: 1.44
